Experimental findings from ChEMBL document CHEMBL5390312, “Discovery of Tumor-Targeted 6-Methyl Substituted Pemetrexed and Related Antifolates with Selective Loss of RFC Transport” (ACS Med Chem Lett, 2023) are described below.

SMILES strings stand for the structures. Activity calls are given as the source filed them. The rule behind the calls is not given here.

Holding throughout (format): functional, cell-based
Assay [1] has as its system KB. Nature of the assay: Antiproliferative activity against human KB cells assessed as inhibition of cell growth upto 1000 nM incubated for 96 hrs in the presence of adenosine by CellTiter-Blue cell viability assay. In general terms: Alamar Blue is a resazurin reagent that responds to reducing activity.
A short description of assay [2]: Antiproliferative activity against chinese hamster R2 cells assessed as inhibition of cell growth incubated for 96 h by CellTiter-Blue cell viability assay. The note with it: Cricetulus griseus, R2, 96 h.
Assay [3] concerns KB. Nature of the assay: Antiproliferative activity against human KB cells assessed as inhibition of cell growth upto 1000 nM incubated for 96 hrs in the presence of AICA by CellTiter-Blue cell viability assay.
For assay [4], the system named is KB. Nature of the assay: Antiproliferative activity against human KB cells assessed as inhibition of cell growth upto 1000 nM incubated for 96 hrs in the presence of glycine by CellTiter-Blue cell viability assay.
Assay [5] concerns KB. Nature of the assay: Antiproliferative activity against human KB cells assessed as inhibition of cell growth upto 1000 nM incubated for 96 hrs in the presence of thymidylate by CellTiter-Blue cell viability assay.
Assay [6] deals with KB. Put plainly: Antiproliferative activity against human KB cells assessed as inhibition of cell growth upto 1000 nM incubated for 96 hrs in the presence of thymidine by CellTiter-Blue cell viability assay.

As for `Cc1[nH]c2nc(N)[nH]c(=O)c2c1CCc1ccc(C(=O)N[C@@H](CCC(=O)O)C(=O)O)cc1`, the result in assay [1] and in assay [3] was inactive. Further, the IC50 in assay [2] was > 1000 nM.

In the case of `Nc1nc2[nH]cc(CCCc3ccc(C(=O)N[C@@H](CCC(=O)O)C(=O)O)cc3)c2c(=O)[nH]1`, the result in assay [1], in assay [4], in assay [3] and in assay [6] was inactive. Moreover, the outcome in assay [5] was Active. The IC50 in assay [2] is > 1000 nM.

With `Nc1nc2[nH]cc(CCc3ccc(C(=O)N[C@@H](CCC(=O)O)C(=O)O)s3)c2c(=O)[nH]1`, the IC50 in assay [2] was > 1000 nM.

Regarding `Nc1nc2[nH]cc(CCc3ccc(C(=O)N[C@@H](CCC(=O)O)C(=O)O)cc3)c2c(=O)[nH]1` [PEMETREXED], the result in assay [1], in assay [3] and in assay [6] was inactive. Besides, the outcome in assay [5] was Active. Moreover, in assay [2], the IC50 was > 1000 nM.

As to `Cc1[nH]c2nc(N)[nH]c(=O)c2c1CCc1ccc(C(=O)N[C@@H](CCC(=O)O)C(=O)O)c(F)c1`, the result in assay [1] and in assay [3] was inactive. The IC50 in assay [2] is > 1000 nM.

Take `Cc1[nH]c2nc(N)[nH]c(=O)c2c1CCCc1ccc(C(=O)N[C@@H](CCC(=O)O)C(=O)O)cc1`: the outcome in assay [1] and in assay [3] was inactive. Besides, the IC50 in assay [2] is > 1000 nM.

Turning to `Nc1nc2[nH]cc(CCc3ccc(C(=O)N[C@@H](CCC(=O)O)C(=O)O)c(F)c3)c2c(=O)[nH]1`, the result in assay [1], in assay [3] and in assay [6] was inactive. For the same molecule, the result in assay [5] was Active. Moreover, in assay [2], the 50% inhibitory concentration (IC50) was > 1000 nM.

Turning to `Cc1[nH]c2nc(N)[nH]c(=O)c2c1CCc1ccc(C(=O)N[C@@H](CCC(=O)O)C(=O)O)s1`, the result in assay [1] and in assay [3] was inactive. Further, the IC50 in assay [2] was > 1000 nM.

Broadly, the IC50 is the concentration at which inhibition is half-maximal.
